Source: US10174013B2, “Benzimidazole derivatives as kinase inhibitors” (SELVITA S.A., priority 2012, dated 2019)
Counter-ions that a name gives are not always drawn. Like-named read-outs stand apart in the source and are kept apart here.

Assays:
Pim-3 = Pim-3 (Homo sapiens (Human), UniProt Q86V86); assay: ADP-Glo Kinase Assay, Pim-3; type: biochemical; conditions: 1 μM compound; for inhibition at 1 µM: read-out: Pim-3 % INH (1 μM)
Method in brief: (§1)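 Buffer was MOPS 5 mM (pH 7.5) with MgCl2, EDTA and DTT; ATP set at apparent Km per kinase. Compounds were diluted in assay buffer to 1000 nM. Kinase-generated ADP was converted to luciferase signal and normalised to percent inhibition.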

hERG potassium channel = hERG potassium channel (Homo sapiens (Human), UniProt Q12809); assay: hERG automated patch clamp assay (QPatch HT)
Sequence of hERG potassium channel (Q12809 whole entry): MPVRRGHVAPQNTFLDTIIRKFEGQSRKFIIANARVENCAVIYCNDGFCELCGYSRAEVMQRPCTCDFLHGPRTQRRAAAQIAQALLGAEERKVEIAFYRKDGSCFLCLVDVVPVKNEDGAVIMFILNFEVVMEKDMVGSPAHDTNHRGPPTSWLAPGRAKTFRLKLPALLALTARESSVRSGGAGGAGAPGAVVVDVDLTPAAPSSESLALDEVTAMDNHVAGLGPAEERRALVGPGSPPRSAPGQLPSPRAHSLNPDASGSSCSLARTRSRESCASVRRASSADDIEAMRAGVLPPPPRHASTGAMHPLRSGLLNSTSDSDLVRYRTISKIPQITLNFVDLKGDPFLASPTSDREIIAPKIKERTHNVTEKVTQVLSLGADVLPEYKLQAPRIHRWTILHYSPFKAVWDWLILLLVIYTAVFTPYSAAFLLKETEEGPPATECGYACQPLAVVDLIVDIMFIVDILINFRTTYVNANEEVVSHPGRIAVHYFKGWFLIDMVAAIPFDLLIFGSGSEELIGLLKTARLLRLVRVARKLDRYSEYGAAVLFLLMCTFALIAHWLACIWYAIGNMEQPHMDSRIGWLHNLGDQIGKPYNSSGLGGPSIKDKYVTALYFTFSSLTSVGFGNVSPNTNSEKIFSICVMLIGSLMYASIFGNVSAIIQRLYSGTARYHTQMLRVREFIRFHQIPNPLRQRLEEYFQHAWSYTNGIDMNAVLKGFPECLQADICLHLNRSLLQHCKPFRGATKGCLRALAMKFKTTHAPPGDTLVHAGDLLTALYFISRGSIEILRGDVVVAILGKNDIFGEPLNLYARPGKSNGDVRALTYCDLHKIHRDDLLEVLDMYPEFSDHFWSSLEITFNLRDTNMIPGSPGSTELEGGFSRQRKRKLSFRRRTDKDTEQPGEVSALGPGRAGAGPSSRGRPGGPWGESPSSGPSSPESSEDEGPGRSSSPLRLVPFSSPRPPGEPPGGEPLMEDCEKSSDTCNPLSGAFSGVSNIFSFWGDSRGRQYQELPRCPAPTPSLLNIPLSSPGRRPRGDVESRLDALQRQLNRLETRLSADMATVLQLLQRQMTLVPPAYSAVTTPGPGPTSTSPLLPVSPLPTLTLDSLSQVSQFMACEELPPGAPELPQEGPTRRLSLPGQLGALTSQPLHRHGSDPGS
Procedure: The hERG (human ether-A-go-go-related gene) channel corresponds to an important anti-target for potential new drugs since its inhibition may lead to sudden death. In order to establish whether the compounds of the present invention act on hERG, the following experiment was carried out.
The in vitro effects of the compounds indicated in Table 5 on the hERG potassium channel current (a surrogate for Iκr, the rapidly activating, delayed rectifier cardiac potassium current) expressed in mammalian cells were evaluated at room temperature using the QPatch HT® (Sophion Bioscience A/S, Denmark), an automatic parallel patch clamp system. Each compound indicated in Table 5 was evaluated at 0.1, 1, 3, 10 and 30 μM with each concentration tested in a minimum of two cells (n≥2). The duration of exposure to each compound concentration was 3 minutes.

Pim-1 = Pim-1 (Homo sapiens (Human), UniProt P11309); assay: ADP-Glo Kinase Assay, Pim-1; type: biochemical; conditions: 1 μM compound; for inhibition at 1 µM: read-out: Pim-1 % INH (1 μM)
Sequence of Pim-1 (P11309 whole entry): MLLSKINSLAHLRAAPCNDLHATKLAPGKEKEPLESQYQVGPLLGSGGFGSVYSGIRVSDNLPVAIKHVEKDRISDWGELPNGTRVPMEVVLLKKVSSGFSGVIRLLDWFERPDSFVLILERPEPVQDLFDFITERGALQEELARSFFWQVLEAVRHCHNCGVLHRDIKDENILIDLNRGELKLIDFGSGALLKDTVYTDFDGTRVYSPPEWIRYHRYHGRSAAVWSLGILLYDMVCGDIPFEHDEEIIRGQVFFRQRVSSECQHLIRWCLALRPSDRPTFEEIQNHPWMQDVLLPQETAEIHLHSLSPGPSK
Method in brief: as §1

CDK2/E = CDK2/E (Homo sapiens (Human), UniProt P24941); assay: ADP-Glo Kinase Assay, CDK2/E; type: biochemical; conditions: 1 μM compound; for inhibition at 1 µM: read-out: CDK2/E % INH (1 μM)
Method in brief: as §1

MV4-11 cells = assay: Growth inhibition, MTS assay, MV4-11; type: cell-based, Human; conditions: MTS cell viability, read-out: MV4-11 ED50
Pim-2 = Pim-2 (Homo sapiens (Human), UniProt Q9P1W9); assay: ADP-Glo Kinase Assay, Pim-2; type: biochemical; conditions: 1 μM compound; for inhibition at 1 µM: read-out: Pim-2 % INH (1 μM)
Sequence of Pim-2 (Q9P1W9 whole entry): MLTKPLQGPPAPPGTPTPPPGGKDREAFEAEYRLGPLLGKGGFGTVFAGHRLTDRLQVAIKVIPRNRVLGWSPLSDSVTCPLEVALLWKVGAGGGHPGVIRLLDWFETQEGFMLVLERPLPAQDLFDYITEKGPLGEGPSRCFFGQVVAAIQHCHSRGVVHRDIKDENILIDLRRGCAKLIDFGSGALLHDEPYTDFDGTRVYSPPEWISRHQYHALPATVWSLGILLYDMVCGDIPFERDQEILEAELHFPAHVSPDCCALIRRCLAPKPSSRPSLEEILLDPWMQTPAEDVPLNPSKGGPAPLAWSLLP
Method in brief: as §1

Jeko-1 cells = assay: Growth inhibition, MTS assay, Jeko-1; type: cell-based, Human; conditions: 72 hours, MTS cell viability, read-out: Jeko-1 ED50
Excerpt: (§2) The following cell lines, were obtained and used in tests as outlined below: • Human myelomonocytic, biphenotypic leukemia MV4-11 cells (harboring a Flt3-ITD mutation); • Human Acute Myeloid Leukemia MOLM16 cells; • Human Acute Myeloid Leukemia MOLM13 cells (harboring a Flt3-ITD mutation); • Human Myeloid Leukemia KG-1 cells; • Human erythroleukemia HEL92 cells; • Human mantle cell lymphoma Jeko-1 cells; • Human hepatocellular carcinoma HepG2 cells; and • Human colon adenocarcinoma SW-480 cells.
(§3) The assays were carried out according to the following protocol, which is described as an example for the MV4-11 cells:
(§4) Ten thousand MV4-11 cells were inoculated into each well of a 96-well microplate (manufactured by Corning Corp.) using Iscove's MDM medium (culture medium) containing 10% fetal calf serum (FCS). The same day, a dimethyl sulfoxide (DMSO) solution of each test compound prepared in a concentration of 10 mmol/L was further diluted with DMSO to the desired concentrations (0.1, 0.5, 1, 2.5, 5 and 10 micromol/L), and the diluted solution was added to each well. The individual wells were further cultured in 5% carbon dioxide at 37° C. for 72 hours. […] Briefly, 10 μl MTS (3-(4,5-Dimethyl-2-thiazolyl)-5-(carboxymethoxyphenyl)-2-(4-sulfophenyl)-2H-tetrazolium was added to each well, and culturing was performed in 5% carbon dioxide at 37° C. for 2 hours. After this incubation and using a microplate spectrophotometer (Synergy 2 multi-mode microplate reader (BioTek)), the absorbance of each well was measured at 490 nm. The value for cells not incubated with a test compound was designated as 100%. By comparing these values with the absorbance difference obtained at the well in which each test compound was added, the cell viability (% viability) after treatment with the test compound was calculated.

FLT3wt = FLT3wt (Homo sapiens (Human), UniProt P36888); assay: ADP-Glo Kinase Assay, Flt3 wt; type: biochemical; conditions: 1 μM compound; for inhibition at 1 µM: read-out: Flt3wt % INH (1 μM)
Sequence of FLT3wt (P36888 27-993): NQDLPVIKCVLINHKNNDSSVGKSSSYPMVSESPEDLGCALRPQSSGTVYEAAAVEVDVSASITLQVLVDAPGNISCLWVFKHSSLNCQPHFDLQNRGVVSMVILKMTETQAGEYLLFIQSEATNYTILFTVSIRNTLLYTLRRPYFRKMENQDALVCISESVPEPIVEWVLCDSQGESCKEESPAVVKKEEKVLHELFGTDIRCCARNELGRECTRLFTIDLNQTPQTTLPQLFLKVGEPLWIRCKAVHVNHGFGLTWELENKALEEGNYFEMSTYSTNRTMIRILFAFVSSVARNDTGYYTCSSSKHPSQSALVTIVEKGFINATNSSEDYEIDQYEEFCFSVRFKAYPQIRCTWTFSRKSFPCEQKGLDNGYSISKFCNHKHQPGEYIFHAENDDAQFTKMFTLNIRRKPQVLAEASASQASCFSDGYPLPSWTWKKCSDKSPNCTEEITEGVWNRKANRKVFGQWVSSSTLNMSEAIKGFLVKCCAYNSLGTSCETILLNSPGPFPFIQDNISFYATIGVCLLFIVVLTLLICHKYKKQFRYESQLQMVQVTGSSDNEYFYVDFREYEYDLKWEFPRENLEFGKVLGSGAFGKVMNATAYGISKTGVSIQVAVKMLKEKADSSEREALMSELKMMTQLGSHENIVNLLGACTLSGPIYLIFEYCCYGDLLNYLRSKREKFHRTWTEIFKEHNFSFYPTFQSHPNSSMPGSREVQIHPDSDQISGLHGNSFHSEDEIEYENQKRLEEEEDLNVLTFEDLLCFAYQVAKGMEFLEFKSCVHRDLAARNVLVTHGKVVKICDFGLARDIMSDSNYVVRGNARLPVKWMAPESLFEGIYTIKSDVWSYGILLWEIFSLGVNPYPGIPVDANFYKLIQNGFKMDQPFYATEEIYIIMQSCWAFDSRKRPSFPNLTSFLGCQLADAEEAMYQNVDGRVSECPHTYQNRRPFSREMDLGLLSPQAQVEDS
Method in brief: as §1

DYRK1 = DYRK1 (Homo sapiens (Human), UniProt Q13627); assay: ADP-Glo Kinase Assay, DYRK1; type: biochemical; conditions: 1 μM compound; for inhibition at 1 µM: read-out: DYRK1A % INH (1 μM)
Method in brief: as §1

HepG2 cells = assay: Growth inhibition, MTS assay, HepG2; type: cell-based, Human; conditions: MTS cell viability, read-out: HepG2 ED50
MOLM16 cells = assay: Growth inhibition, MTS assay, MOLM16; type: cell-based, Human; conditions: Homo sapiens, MOLM16, 72 h, MTS cell viability, read-out: MOLM 16 ED50
Excerpt: as §2, §3, §4

SW-480 cells = assay: Growth inhibition, MTS assay, SW-480; type: cell-based, Human; conditions: 72 hours, MTS cell viability, read-out: SW-480 ED50
HEL92 cells = assay: Growth inhibition, MTS assay, HEL92; type: cell-based, Human; conditions: MTS cell viability, read-out: HEL92 ED50
MV4-11 xenograft = MV4-11 xenograft in immunocompromised mice; type: in vivo; conditions: MV4-11 xenograft, oral
Excerpt: Several compounds of the present invention have been studied in a xenograft in mice, an in vivo tumor transplantation model used to investigate the factors involved in malignant transformation, invasion and metastasis, as well as to examine response to therapy. For the purpose of acceptance of donor leukemic cells (MV4-11 or MOLM16 cells), immunocompromised mice were used, namely particularly severely compromised immunodeficient mice (NOD/scid, SCID/beige). When tumors developed size of approx. 50-200 mm^3, the compounds as indicated below in Tables 3 and 3a were administered orally every day for 2-3 weeks, in once a day (QD) or twice a day (BID) schedule. During the course of the experiment, the mice were monitored and the following two parameters were measured: the tumor growth inhibition (TGI) factor as a measure of therapeutic efficacy and the body weight change (ΔBW) factor as a measure of possible compound toxicity. The results are depicted in Tables 3 and 3a.
Next, compound 26A was evaluated in a xenograft study of acute myeloid leukemia (MV-4-11), alone or in a combinational treatment with Cytarabine in vivo (Table 3b; FIG. 6). Compound 26A was tested in two doses (50 and 25 mg/kg) and administered twice a day (BID); Cytarabine was administered at dose of 50 mg/kg three times in a week (TIW). During 15 days of compound administration dose-dependent anti-cancer activity of compound 26A (administered alone) was shown. Tumor growth inhibition reached −82% and −77%, respectively.

Row | SMILES | inhibition at 1 µM (Pim-3) | inhibition at 1 µM (Pim-1) | inhibition at 1 µM (CDK2/E) | IC50 (MV4-11 cells; Homo sapiens, MV4-11, 72 h) | inhibition at 1 µM (Pim-2) | inhibition at 1 µM (FLT3wt) | inhibition at 1 µM (DYRK1) | IC50 (HepG2 cells; Homo sapiens, HepG2, 72 h) | IC50 (hERG potassium channel) | IC50 (Jeko-1 cells; Homo sapiens, JeKo-1) | IC50 (HEL92 cells; Homo sapiens, 72 h) | further results
1 | CC(C)Cn1c(NCC(O)CN)nc2c([N+](=O)[O-])c(Br)c(Br)cc21 (stereo not shown) [Example 1Y] | 86% | > 95% | 6% | 1.4 µM | 25% | < 5% |  |  | 16.9 µM | 3.4 µM |  | 
2 | CCn1c(N2CCNCC2C)nc2c([N+](=O)[O-])c(Br)c(Br)cc21 (stereo not shown) [Example 1AD] | > 95% | > 95% | 26% | 0.5 µM | 52% | 18% | 72% | 0.6 µM | 1.42 µM | 0.4 µM | 0.5 µM | IC50 (SW-480 cells; Homo sapiens, SW480): 0.7 µM
3 | CC(C)n1c(N2CCC[C@H](N)C2)nc2c([N+](=O)[O-])c(Br)c(Br)cc21 [Example 1AP] |  |  |  |  |  |  |  |  | 1.82 µM |  |  | IC50 (SW-480 cells): 2.4 µM; Pim-3 % INH (1 μM) (Pim-3): 93%; Pim-1 % INH (1 μM) (Pim-1): >95%; CDK2/E % INH (1 μM) (CDK2/E): 13%; DYRK1A % INH (1 μM) (DYRK1): 70%; IC50 (MV4-11 cells; 72 hours): 0.3 µM; IC50 (HEL92 cells; 72 hours): 2.4 µM; IC50 (HepG2 cells; 72 hours): 0.9 µM; Pim-2 % INH (1 μM) (Pim-2): 80%; IC50 (Jeko-1 cells): 1.3 µM; TGI (tumor growth inhibition) (MV4-11 xenograft; 150 mg/Kg QD): 99%; ΔBW (body weight change) (MV4-11 xenograft; 150 mg/Kg QD): 11.7%; TGI (tumor growth inhibition) (MV4-11 xenograft; doses as in Table 3): exceeding 97%; Flt3wt % INH (1 μM) (FLT3wt): 56%
4 | CCCn1c(NCC(O)CN)nc2c([N+](=O)[O-])c(Br)c(Br)cc21 (stereo not shown) [Example 1X] | > 95% | > 95% | 17% | 1.2 µM | 36% | < 5% | 16% |  | 20.4 µM | 4.3 µM |  | 
5 | CC(C)Cn1c(N2CCNCC2)nc2c([N+](=O)[O-])c(Br)c(Br)cc21 [Example 1N] | > 95% | > 95% | 39% | 0.6 µM | 69% | 55% | > 95% | 1.7 µM |  |  | 1.4 µM | IC50 (SW-480 cells; Homo sapiens, SW480): 1.2 µM; IC50 (hERG potassium channel; human, 3 min): 1.28 µM; TGI (tumor growth inhibition) (MV4-11 xenograft; 150 mg/Kg QD): 52%; ΔBW (body weight change) (MV4-11 xenograft; 150 mg/Kg QD): −6.5%; TGI (tumor growth inhibition) (MV4-11 xenograft; doses as in Table 3): up to 70%
6 | CC(C)n1c(N[C@@H]2CCCNC2)nc2c([N+](=O)[O-])c(Br)c(Br)cc21 [Example 1AS] |  |  |  |  |  |  |  |  | 5.77 µM |  |  | IC50 (MV4-11 cells; 72 hours): 0.6 µM; IC50 (HEL92 cells; 72 hours): 5.4 µM; IC50 (HepG2 cells; 72 hours): 1.4 µM; IC50 (Jeko-1 cells): 1.1 µM
7 | CCn1c(NCC2CCCN2)nc2c([N+](=O)[O-])c(Br)c(Br)cc21 (stereo not shown) [Example 1AM] | 53% | 85% | 12% | 2.6 µM |  | < 5% |  | 2.7 µM |  | 2.8 µM | 8 µM | IC50 (hERG potassium channel; human, 3 min): 1.46 µM
8 | CCn1c(NCCN)nc2c([N+](=O)[O-])c(Br)c(Br)cc21 [Example 1AL] |  |  |  |  |  |  |  |  | 2.42 µM |  |  | IC50 (SW-480 cells): 5.3 µM; Pim-3 % INH (1 μM) (Pim-3): >95%; Pim-1 % INH (1 μM) (Pim-1): >95%; CDK2/E % INH (1 μM) (CDK2/E): <5%; DYRK1A % INH (1 μM) (DYRK1): 49%; IC50 (MV4-11 cells; 72 hours): 2.2 µM; IC50 (HEL92 cells; 72 hours): 5.3 µM; IC50 (HepG2 cells; 72 hours): 1.4 µM; Pim-2 % INH (1 μM) (Pim-2): 42%; IC50 (Jeko-1 cells): 2.3 µM; Flt3wt % INH (1 μM) (FLT3wt): <5%

The next lines start with results.

Row | inhibition at 1 µM (Pim-3) | inhibition at 1 µM (Pim-1) | inhibition at 1 µM (CDK2/E) | IC50 (MV4-11 cells; Homo sapiens, MV4-11, 72 h) | inhibition at 1 µM (Pim-2) | inhibition at 1 µM (FLT3wt) | inhibition at 1 µM (DYRK1) | IC50 (HepG2 cells; Homo sapiens, HepG2, 72 h) | SMILES | IC50 (hERG potassium channel) | IC50 (Jeko-1 cells; Homo sapiens, JeKo-1) | IC50 (HEL92 cells; Homo sapiens, 72 h) | further results
9 |  | 59% |  | 5.9 µM |  |  | 33% | 2.7 µM | CC(C)n1c(N2CCNCC2)nc2c([N+](=O)[O-])c(C(F)(F)F)c(Br)cc21 [Example 9B, 6-bromo-4-nitro-2-(piperazin-1-yl)-1-(propan-2-yl)-5-(trifluoromethyl)-1H-1,3-benzodiazole] |  |  |  | IC50 (MOLM16 cells): 7.29 µM
10 | 92% | 82% | < 5% | 1.3 µM | 14% | 11% | 46% | 1.7 µM | CCn1c(N2CCNCC2)nc2c(C#N)c(Br)c(Br)cc21 [Example 8A, 5,6-dibromo-1-ethyl-2-(piperazin-1-yl)-1H-1,3-benzodiazole-4-carbonitrilehydrochloride] | 0.77 µM | 1.4 µM | 4.8 µM | IC50 (SW-480 cells; Homo sapiens, SW480): 4.7 µM
11 |  | 67% |  | 6.1 µM |  |  |  |  | NC(=O)Cn1c(N2CCNCC2)nc2c([N+](=O)[O-])c(Br)c(Br)cc21 [Example 2L, 2-[5,6-dibromo-4-nitro-2-(piperazin-1-yl)-1H-1,3-benzodiazol-1-yl]acetamide] |  |  |  | IC50 (MOLM16 cells): 3.1 µM
12 |  |  |  | 2.8 µM |  |  |  | 7 µM | O=[N+]([O-])c1c(Br)c(Br)cc2c1nc(N1CCNCC1)n2CCN1CCNCC1 [Example 2C, 5,6-dibromo-4-nitro-2-(piperazin-1-yl)-1-[2-(piperazin-1-yl)ethyl]-1H-1,3-benzodiazole hydrochloride] | 2.5 µM | 6.2 µM |  | 
13 |  | > 95% |  | 1.3 µM |  |  | 18% |  | NCCn1c(N2CC[C@H](N)C2)nc2c([N+](=O)[O-])c(Br)c(Br)cc21 [Example 3B, (3S)-1-[1-(2-aminoethyl)-5,6-dibromo-4-nitro-1H-1,3-benzodiazol-2-yl]pyrrolidin-3-amine] |  |  |  | IC50 (MOLM16 cells): 1.5 µM
